Test results as given in the NIST ThermoML archive (doi:10.1016/j.jct.2011.12.013).

Test: xn = mol fraction of the nth substance listed
Settings: Liquid, Custom Made Vibrating Tube Densimeter

C=C1CC[C@H]2C[C@@H]1C2(C)C [(1S,5S)-6,6-dimethyl-2-methylenebicyclo[3.1.1]heptane] + C=C(C)[C@H]1CC=C(C)CC1
mass density [kg/m3]
Settings | x2 = 0 | x2 = 0.11 | x2 = 0.2008 | x2 = 0.289 | x2 = 0.3961 | x2 = 0.4938 | x2 = 0.5906 | x2 = 0.6984 | x2 = 0.7993 | x2 = 0.9022
283.15 K, 20000 kPa | 891.3 | 888.1 | 885.4 | 882.8 | 879.6 | 876.8 | 873.9 | 870.9 | 868 | 864.5
283.15 K, 25000 kPa | 894.2 | 891 | 888.3 | 885.7 | 882.4 | 879.6 | 876.8 | 873.7 | 870.8 | 867.8
283.15 K, 30000 kPa | 897 | 893.9 | 891 | 888.4 | 885.2 | 882.5 | 879.7 | 876.5 | 873.6 | 870.4
283.15 K, 35000 kPa | 899.9 | 896.7 | 893.8 | 891.2 | 887.9 | 885.2 | 882.4 | 879.3 | 876.5 | 873.3
283.15 K, 40000 kPa | 902.6 | 899.3 | 896.3 | 894 | 890.6 | 887.8 | 885.1 | 881.9 | 879.2 | 876
298.15 K, 20000 kPa | 880.2 | 877 | 874.1 | 871.8 | 868.7 | 865.8 | 863 | 859.9 | 857.2 | 854.3
298.15 K, 25000 kPa | 883.3 | 880.1 | 877.2 | 874.9 | 871.8 | 868.9 | 866.2 | 863.1 | 860.2 | 857.3
298.15 K, 30000 kPa | 886.3 | 883.1 | 880.3 | 877.9 | 874.8 | 871.9 | 869.2 | 866.2 | 863.3 | 860.3
298.15 K, 35000 kPa | 889.3 | 886.1 | 883.5 | 881 | 877.7 | 874.9 | 872.3 | 869 | 866.5 | 863.4
298.15 K, 40000 kPa | 892.2 | 889 | 886.5 | 883.9 | 880.7 | 878 | 875.4 | 871.9 | 869 | 866.1
313.15 K, 20000 kPa | 869.3 | 866.1 | 863.5 | 860.9 | 857.8 | 854.9 | 852.4 | 849.3 | 846.5 | 843.7
313.15 K, 25000 kPa | 872.6 | 869.5 | 866.8 | 864.2 | 861.1 | 858.1 | 855.6 | 852.5 | 849.8 | 847
313.15 K, 30000 kPa | 875.7 | 872.6 | 870.1 | 867.5 | 864.3 | 861.4 | 858.7 | 855.7 | 852.9 | 849.9
313.15 K, 35000 kPa | 878.8 | 875.7 | 873.3 | 870.6 | 867.5 | 864.5 | 862 | 858.7 | 856.1 | 853
313.15 K, 40000 kPa | 882 | 878.8 | 876.7 | 873.8 | 870.7 | 867.8 | 865 | 861.8 | 859.1 | 856
